Target: T1, Human HIF-PHD2 (Homo sapiens, UniProt Q9GZT9)
T1 construct: FLAG-tagged full length PHD2 expressed in and purified from baculovirus-infected Sf9 cells; FLAG; made in house; host or cells: baculovirus-infected Sf9 cells
Experiment: Inhibition of the hydroxylation of a HIF peptide by PHD2 (time resolved fluorescence, 384-well)
Format: biochemical
Conditions: FLAG-tagged full length PHD2; 0.2 μM 2-oxoglutarate, 0.5 μM HIF-1α peptide; 45 minutes at room temperature; read-out: Human HIF-PHD2 IC50
Protocol: To each well of a 384-well plate, 1 μL of test compounds in DMSO (final concentration ranging from 0.3 nM to 10 uM) were added into 20 μl of assay buffer (50 mM Tris pH 7.4/0.01% Tween-20/0.1 mg/ml bovine serum albumin/10 μM ferrous sulfate/1 mM sodium ascorbate/20 μg/ml catalase) containing 0.15 μg/ml FLAG-tagged full length PHD2 expressed in and purified from baculovirus-infected Sf9 cells. After a 5 min preincubation at room temperature, the enzymatic reactions were initiated by the addition of 4 μL of substrates {final concentrations of 0.2 μM 2-oxoglutarate and 0.5 μM HIF-1α peptide biotinyl-[…] […] After incubation for 45 minutes at room temperature, the reactions were terminated by the addition of a 25 μL quench/detection mix to a final concentration of 1 mM ortho-phenanthroline, 0.1 mM EDTA, 0.5 nM anti-(His)6 LANCE reagent (Perkin-Elmer Life Sciences), 100 nM AF647-labeled streptavidin (Invitrogen), and 2 μg/ml (His)6-VHL complex {S. Tan Protein Expr. Purif.

T1 sequence (Q9GZT9 whole entry): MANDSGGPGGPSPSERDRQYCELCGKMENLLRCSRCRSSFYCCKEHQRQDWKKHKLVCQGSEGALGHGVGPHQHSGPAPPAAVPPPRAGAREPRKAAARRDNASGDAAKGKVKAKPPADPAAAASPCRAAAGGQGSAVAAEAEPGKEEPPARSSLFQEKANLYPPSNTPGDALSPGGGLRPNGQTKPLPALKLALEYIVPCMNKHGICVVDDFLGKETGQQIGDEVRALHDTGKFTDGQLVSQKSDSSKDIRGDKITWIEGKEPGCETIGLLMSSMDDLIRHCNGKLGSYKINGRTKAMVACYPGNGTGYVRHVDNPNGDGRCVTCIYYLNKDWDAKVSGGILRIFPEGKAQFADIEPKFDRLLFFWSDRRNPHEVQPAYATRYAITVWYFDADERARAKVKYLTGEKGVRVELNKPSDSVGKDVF

Question: For `O=C(O)CNC(=O)c1c(O)c2cccc3c2n(c1=O)C(c1ccc(C(F)(F)F)cc1)CO3` (racemic) [Example 1, 2-(7-Hydroxy-5-oxo-3-(4-(trifluoromethyl)phenyl)-3,5-dihydro-2H-[1,4]oxazino[2,3,4-ij]quinoline-6-carboxamido)acetic acid], which IC50 is on record?
Answer: 15.8 nM

Question: With `O=C(O)CNC(=O)c1c(O)c2cccc3c2n(c1=O)CC(c1cncs1)C3` (racemic) [Example 50, 2-(1-Hydroxy-3-oxo-6-(thiazol-5-yl)-3,5,6,7-tetrahydropyrido[3,2,1-ij]quinoline-2-carboxamido)acetic acid] as the compound, how does the IC50 read?
Answer: 7.3 nM

Question: For `O=C(O)CNC(=O)c1c(O)c2cccc3c2n(c1=O)C(c1ccccc1)C3` (racemic) [Example 129, 2-(6-Hydroxy-4-oxo-2-phenyl-2,4-dihydro-1H-pyrrolo[3,2,1-ij]quinoline-5-carboxamido)acetic acid], which IC50 is on record?
Answer: 74 nM

Question: Which IC50 does the source give for `O=C(O)CNC(=O)c1c(O)c2cccc3c2n(c1=O)C(Cc1ccc(Cl)cc1)CC3` (racemic) [Example 131, 2-(5-(4-Chlorobenzyl)-1-hydroxy-3-oxo-3,5,6,7-tetrahydropyrido[3,2,1-ij]quinoline-2-carboxamido)acetic acid] here?
Answer: 15 nM

Question: How did the IC50 turn out when `O=C(O)CNC(=O)c1c(O)c2cccc3c2n(c1=O)C(c1ccc(Br)cc1)CO3` (racemic) [Example 133, 2-(3-(4-Bromophenyl)-7-hydroxy-5-oxo-3,5-dihydro-2H-[1,4]oxazino[2,3,4-ij]quinoline-6-carboxamido)acetic acid] was run?
Answer: 17 nM

Question: Which IC50 does the source give for `O=C(O)CNC(=O)c1c(O)c2cccc3c2n(c1=O)C(c1ccc(C(F)(F)F)cc1)CO3` (single isomer, unassigned) [Example 1a, 2-(7-Hydroxy-5-oxo-3-(4-(trifluoromethyl)phenyl)-3,5-dihydro-2H-[1,4]oxazino[2,3,4-ij]quinoline-6-carboxamido)acetic acid] here?
Answer: 33.7 nM

Question: With `O=C(O)CNC(=O)c1c(O)c2cccc3c2n(c1=O)C(c1ccc(C(F)(F)F)cc1)CO3` (single isomer, unassigned) [Example 1b, 2-(7-Hydroxy-5-oxo-3-(4-(trifluoromethyl)phenyl)-3,5-dihydro-2H-[1,4]oxazino[2,3,4-ij]quinoline-6-carboxamido)acetic acid] as the compound, how does the IC50 read?
Answer: 13.1 nM

Question: For `CS(=O)(=O)c1cc2c3c(c1)c(O)c(C(=O)NCC(=O)O)c(=O)n3CC(c1ccc(C(F)(F)F)cc1)O2` (single isomer, unassigned) [Example 17, 2-(7-Hydroxy-9-(methylsulfonyl)-5-oxo-2-(4-(trifluoromethyl)phenyl)-3,5-dihydro-2H-[1,4]oxazino[2,3,4-ij]quinoline-6-carboxamido)acetic acid], which IC50 is on record?
Answer: 0.9 nM

Question: For `CS(=O)(=O)c1cc2c3c(c1)c(O)c(C(=O)NCC(=O)O)c(=O)n3CC(c1ccc(C(F)(F)F)cc1)O2` (single isomer, unassigned) [Example 18, 2-(7-Hydroxy-9-(methylsulfonyl)-5-oxo-2-(4-(trifluoromethyl)phenyl)-3,5-dihydro-2H-[1,4]oxazino[2,3,4-ij]quinoline-6-carboxamido)acetic acid], which IC50 is on record?
Answer: 1.3 nM

Question: For `N#Cc1ccc2c(O)c(C(=O)NCC(=O)O)c(=O)n3c2c1OC(c1ccc(C(F)(F)F)cc1)C3` (single isomer, unassigned) [Example 20, 2-(10-Cyano-7-hydroxy-5-oxo-2-(4-(trifluoromethyl)phenyl)-3,5-dihydro-2H-[1,4]oxazino[2,3,4-ij]quinoline-6-carboxamido)acetic acid], which IC50 is on record?
Answer: 0.5 nM

Question: Which IC50 does the source give for `N#Cc1ccc2c(O)c(C(=O)NCC(=O)O)c(=O)n3c2c1OC(c1ccc(C(F)(F)F)cc1)C3` (single isomer, unassigned) [Example 21, 2-(10-Cyano-7-hydroxy-5-oxo-2-(4-(trifluoromethyl)phenyl)-3,5-dihydro-2H-[1,4]oxazino[2,3,4-ij]quinoline-6-carboxamido)acetic acid] here?
Answer: 0.6 nM

Question: `CS(=O)(=O)c1ccc2c(O)c(C(=O)NCC(=O)O)c(=O)n3c2c1OC(c1ccc(C(F)(F)F)cc1)C3` (single isomer, unassigned) [Example 23, 2-(7-Hydroxy-10-(methylsulfonyl)-5-oxo-2-(4-(trifluoromethyl)phenyl)-3,5-dihydro-2H-[1,4]oxazino[2,3,4-ij]quinoline-6-carboxamido)acetic acid] was tested. Which IC50 did it give?
Answer: 1.6 nM

Question: `CS(=O)(=O)c1ccc2c(O)c(C(=O)NCC(=O)O)c(=O)n3c2c1OC(c1ccc(C(F)(F)F)cc1)C3` (single isomer, unassigned) [Example 24, 2-(7-Hydroxy-10-(methylsulfonyl)-5-oxo-2-(4-(trifluoromethyl)phenyl)-3,5-dihydro-2H-[1,4]oxazino[2,3,4-ij]quinoline-6-carboxamido)acetic acid] was tested. Which IC50 did it give?
Answer: 1.3 nM

Question: With `O=C(O)CNC(=O)c1c(O)c2cccc3c2n(c1=O)CC(c1cncs1)C3` (single isomer, unassigned) [Example 50a, 2-(1-Hydroxy-3-oxo-6-(thiazol-5-yl)-3,5,6,7-tetrahydropyrido[3,2,1-ij]quinoline-2-carboxamido)acetic acid] as the compound, how does the IC50 read?
Answer: 6.7 nM

Question: How did the IC50 turn out when `O=C(O)CNC(=O)c1c(O)c2cccc3c2n(c1=O)CC(c1cncs1)C3` (single isomer, unassigned) [Example 50b, 2-(1-Hydroxy-3-oxo-6-(thiazol-5-yl)-3,5,6,7-tetrahydropyrido[3,2,1-ij]quinoline-2-carboxamido)acetic acid] was run?
Answer: 8.3 nM

Question: With `O=C(O)CNC(=O)c1c(O)c2c(F)ccc3c2n(c1=O)CC(c1ccc(C(F)(F)F)cc1)O3` (single isomer, unassigned) [Example 68, 2-(8-Fluoro-7-hydroxy-5-oxo-2-(4-(trifluoromethyl)phenyl)-3,5-dihydro-2H-[1,4]oxazino[2,3,4-ij]quinoline-6-carboxamido)acetic acid] as the compound, how does the IC50 read?
Answer: 4.9 nM

Question: With `O=C(O)CNC(=O)c1c(O)c2c(Cl)ccc3c2n(c1=O)CC(c1ccc(C(F)(F)F)cc1)O3` (single isomer, unassigned) [Example 70, 2-(8-Chloro-7-hydroxy-5-oxo-2-(4-(trifluoromethyl)phenyl)-3,5-dihydro-2H-[1,4]oxazino[2,3,4-ij]quinoline-6-carboxamido)acetic acid] as the compound, how does the IC50 read?
Answer: 1.8 nM

Question: Which IC50 does the source give for `O=C(O)CNC(=O)c1c(O)c2ccc(Cl)c3c2n(c1=O)CC(c1ccc(C(F)(F)F)cc1)O3` (single isomer, unassigned) [Example 72, 2-(10-Chloro-7-hydroxy-5-oxo-2-(4-(trifluoromethyl)phenyl)-3,5-dihydro-2H-[1,4]oxazino[2,3,4-ij]quinoline-6-carboxamido)acetic acid] here?
Answer: 2.6 nM

Same assay, conditions: FLAG-tagged full length PHD2; 0.2 μM 2-oxoglutarate, 0.5 μM HIF-1α peptide; 45 minutes at room temperature; read-out: MS m/z (M + 1)+ and human HIF-PHD2 IC50

Question: `O=C(O)CNC(=O)c1c(O)c2c(F)ccc3c2n(c1=O)CC(c1ccc(C(F)(F)F)cc1)O3` (single isomer, unassigned) [Example 69, 2-(8-fluoro-7-hydroxy-5-oxo-2-(4-(trifluoromethyl)phenyl)-3,5-dihydro-2H-[1,4]oxazino[2,3,4-ij]quinoline-6-carboxamido)acetic acid] was tested. Which IC50 did it give?
Answer: 3.3 nM

Question: Which IC50 does the source give for `O=C(O)CNC(=O)c1c(O)c2c(Cl)ccc3c2n(c1=O)CC(c1ccc(C(F)(F)F)cc1)O3` (single isomer, unassigned) [Example 71, 2-(8-chloro-7-hydroxy-5-oxo-2-(4-(trifluoromethyl)phenyl)-3,5-dihydro-2H-[1,4]oxazino[2,3,4-ij]quinoline-6-carboxamido)acetic acid] here?
Answer: 5.1 nM
